Assay results reported in patent publication US12649733B2, “3,6-diamino-pyridazin-3-yl derivatives, pharmaceutical compositions containing them and their uses as pro-apoptotic agents” (LES LABORATOIRES SERVIER, priority 2019, dated 2026).

Legend:
Bcl-xL protein = biological target: T1, Bcl-xL protein (Homo sapiens, UniProt Q07817, N197C); test: Fluorescence quenching assay (PUMA peptide displacement); format: binding; conditions: 1 nM protein, 400 nM peptide, 2 hours at 23° C.; KI determined from IC50
T1 construct: (2-197)[N197C]; His-His (two His8 stretches joined by a Gly/Ala/Ser/Thr linker)
Text: Fluorescence quenching assay measures the change in fluorescence intensity of C-terminally Cy5-labeled BCL-xL protein, His-His-(EK)-hs ? (2-197)[N197C] (UniProtKB® primary accession number Q07817-1) having an amino acid sequence (SEQ ID:03): [[…] […] […] […] […]] which is linked in C-terminal region to the amino acid X which corresponds to a cysteine labeled on the sulfur with Sulfo-Cyanine5 from Lumiprobe GmbH catalogue number 13380, upon binding of a C-terminally labeled peptide derived from PUMA (UniProtKB® primary accession number Q9BXH1) having an aminoacid sequence (SEQ ID:04): [[…]] which is linked in C-terminal region to the amino acid X′ where X′ is cysteine labeled on the sulfur with TQ5WS from AAT Bioquest catalogue number 2079.
The addition of a compound which binds competitively to the same site as the peptide will result in an increase in the fluorescence intensity of the protein due to displacement of the fluorescence quencher.
An 11-point serial dilution of each compound was prepared in DMSO the final buffer conditions were 10 mM 4-(2-hydroxyethyl)-1-piperazineethanesulfonic acid [HEPES], 150 mM NaCl, 0.05% Tween 20, pH 7.4 and 5% DMSO. The final protein concentration in the assay was 1 nM with the peptide present at 400 nM. The experiments were incubated for 2 hours at 23° C. before fluorescence intensity was measured on a Biotek SynergyNeo plate reader (Excitation 620 nm, emission 680 nm). […] The KI values were determined from the IC50 values according to Cer et al, Nucleic Acids Res, 2009, Jul. 1: 37(WebServer issue): W441-W445.

H146 cells = test: H146 cell viability, MTT assay; format: cell-based; conditions: 48 h exposure
Procedure, shortened: (§1)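 Cells grown in RPMI 1640 with 10% heat-inactivated FBS at 37° C, 5% CO2, exposed 48 h to nine 3.16-fold serial compound dilutions in triplicate. MTT added for 4 h, SDS/HCl solubilisation overnight, absorbance at 540 nm; IC50 by four-parameter fit.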

MOLT-4 cells = test: MOLT-4 cell viability, MTT assay; format: cell-based; conditions: 48 h exposure
Procedure, shortened: as §1

T1 sequence (Q07817 2-197 N197C): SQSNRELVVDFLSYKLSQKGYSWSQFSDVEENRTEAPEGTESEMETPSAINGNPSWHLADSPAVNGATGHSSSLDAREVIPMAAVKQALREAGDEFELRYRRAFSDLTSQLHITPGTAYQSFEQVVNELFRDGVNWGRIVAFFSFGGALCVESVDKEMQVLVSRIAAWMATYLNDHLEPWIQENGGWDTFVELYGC

Ki (Bcl-xL protein) [nM] | IC50 (H146 cells) [nM] | IC50 (MOLT-4 cells) [nM] | IC50 (H146 cells; Homo sapiens, NCI-H146, 48 h) [nM] | IC50 (MOLT-4 cells; Homo sapiens, MOLT-4, 48 h) [nM] | Structure (SMILES)
0.0088 | 7.33 | 0.753 | – | – | Cc1cc(N(C)c2nc(C(=O)O)c(CCCOc3ccc(C#CC(C)N4CCOCC4)cc3F)s2)nnc1Nc1nc2ccccc2s1 (single isomer, unassigned) [Example 208, 2-[[6-(1,3-Benzothiazol-2-ylamino)-5-methyl-pyridazin-3-yl]-methyl-amino]-5-[3-[2-fluoro-4-((3S or 3R)-morpholinobut-1-ynyl)phenoxy]propyl]thiazole-4-carboxylic acid]
0.0025 | – | – | 23400 | 103 | Cc1cc(N(CCCCCNCCN2CCCCC2)c2nc(C(=O)O)c(CCCOc3ccc(C#CCN(C)C)cc3F)s2)nnc1Nc1nc2ccccc2s1 [Example 187, 2-[[6-(1,3-Benzothiazol-2-ylamino)-5-methyl-pyridazin-3-yl]-[5-[2-(1-piperidyl)ethylamino]pentyl]amino]-5-[3-[4-[3-(dimethylamino)prop-1-ynyl]-2-fluoro-phenoxy]propyl]thiazole-4-carboxylic acid]
0.0018 | – | – | 5.44 | 3410 | CNCCCCN(c1cc(C)c(Nc2nc3ccccc3s2)nn1)c1nc(C(=O)O)c(CCCOc2ccc(C#CCN(C)C)cc2F)s1 [Example 188, 2-[[6-(1,3-Benzothiazol-2-ylamino)-5-methyl-pyridazin-3-yl]-[4-(methylamino)butyl]amino]-5-[3-[4-[3-(dimethylamino)prop-1-ynyl]-2-fluoro-phenoxy]propyl]thiazole-4-carboxylic acid]
0.0074 | – | – | 94.8 | 171 | Cc1cc(N(CCCCCN2CCNCC2)c2nc(C(=O)O)c(CCCOc3ccc(C#CCN(C)C)cc3F)s2)nnc1Nc1nc2ccccc2s1 [Example 189, 2-[[6-(1,3-Benzothiazol-2-ylamino)-5-methyl-pyridazin-3-yl]-(5-piperazin-1-ylpentyl)amino]-5-[3-[4-[3-(dimethylamino)prop-1-ynyl]-2-fluoro-phenoxy]propyl]thiazole-4-carboxylic acid]
0.0032 | – | – | 78.3 | 54.9 | CNCCN(C)CCCCCN(c1cc(C)c(Nc2nc3ccccc3s2)nn1)c1nc(C(=O)O)c(CCCOc2ccc(C#CCN(C)C)cc2F)s1 [Example 190, 2-[[6-(1,3-Benzothiazol-2-ylamino)-5-methyl-pyridazin-3-yl]-[5-[methyl-[2-(methylamino)ethyl]amino]pentyl]amino]-5-[3-[4-[3-(dimethylamino)prop-1-ynyl]-2-fluoro-phenoxy]propyl]thiazole-4-carboxylic acid]
0.0028 | – | – | 83.8 | 2200 | Cc1cc(N(CCCCCN)c2nc(C(=O)O)c(CCCOc3ccc(C#CCN(C)C)cc3F)s2)nnc1Nc1nc2ccccc2s1 [Example 191, 2-[5-Aminopentyl-[6-(1,3-benzothiazol-2-ylamino)-5-methyl-pyridazin-3-yl]amino]-5-[3-[4-[3-(dimethylamino)prop-1-ynyl]-2-fluoro-phenoxy]propyl]thiazole-4-carboxylic acid]
0.0029 | – | – | 11.9 | 96.4 | Cc1cc(N(CCCCN)c2nc(C(=O)O)c(CCCOc3ccc(C#CCN(C)C)cc3F)s2)nnc1Nc1nc2ccccc2s1 [Example 192, 2-[4-Aminobutyl-[6-(1,3-benzothiazol-2-ylamino)-5-methyl-pyridazin-3-yl]amino]-5-[3-[4-[3-(dimethylamino)prop-1-ynyl]-2-fluoro-phenoxy]propyl]thiazole-4-carboxylic acid]
0.0013 | – | – | 65 | 92.5 | CNCC#Cc1ccc(OCCCc2sc(N(CCCC(O)CN(C)C)c3cc(C)c(Nc4nc5ccccc5s4)nn3)nc2C(=O)O)c(F)c1 (stereo not drawn) [Example 193, 2-[[6-(1,3-Benzothiazol-2-ylamino)-5-methyl-pyridazin-3-yl]-[5-(dimethylamino)-4-hydroxy-pentyl]amino]-5-[3-[2-fluoro-4-[3-(methylamino)prop-1-ynyl]phenoxy]propyl]thiazole-4-carboxylic acid]
0.0032 | – | – | 27 | 129 | CNCCCCCN(c1cc(C)c(Nc2nc3ccccc3s2)nn1)c1nc(C(=O)O)c(CCCOc2ccc(C#CCN(C)C)cc2F)s1 [Example 194, 2-[[6-(1,3-Benzothiazol-2-ylamino)-5-methyl-pyridazin-3-yl]-[5-(methylamino)pentyl]amino]-5-[3-[4-[3-(dimethylamino)prop-1-ynyl]-2-fluoro-phenoxy]propyl]thiazole-4-carboxylic acid]

Further lines, the compound ahead of its results:

Structure (SMILES) | Ki (Bcl-xL protein) [nM] | IC50 (H146 cells) [nM] | IC50 (MOLT-4 cells) [nM] | IC50 (H146 cells; Homo sapiens, NCI-H146, 48 h) [nM] | IC50 (MOLT-4 cells; Homo sapiens, MOLT-4, 48 h) [nM]
Cc1cc(N(CCCCN2CCC(N)CC2)c2nc(C(=O)O)c(CCCOc3ccc(C#CCN(C)C)cc3F)s2)nnc1Nc1nc2ccccc2s1 [Example 175, 2-[4-(4-Amino-1-piperidyl)butyl-[6-(1,3-benzothiazol-2-ylamino)-5-methyl-pyridazin-3-yl]amino]-5-[3-[4-[3-(dimethylamino)prop-1-ynyl]-2-fluoro-phenoxy]propyl]thiazole-4-carboxylic acid] | 0.0011 | – | – | 75 | 204
CCN(CC)CCNCCCCN(c1cc(C)c(Nc2nc3ccccc3s2)nn1)c1nc(C(=O)O)c(CCCOc2ccc(C#CCN(C)C)cc2F)s1 [Example 176, 2-[[6-(1,3-Benzothiazol-2-ylamino)-5-methyl-pyridazin-3-yl]-[4-[2-(diethylamino)ethylamino]butyl]amino]-5-[3-[4-[3-(dimethylamino)prop-1-ynyl]-2-fluoro-phenoxy]propyl]thiazole-4-carboxylic acid] | 0.0011 | – | – | 124 | 76.2
Cc1cc(N(CCCCCN2CCC(N)CC2)c2nc(C(=O)O)c(CCCOc3ccc(C#CCN(C)C)cc3F)s2)nnc1Nc1nc2ccccc2s1 [Example 177, 2-[5-(4-Amino-1-piperidyl)pentyl-[6-(1,3-benzothiazol-2-ylamino)-5-methyl-pyridazin-3-yl]amino]-5-[3-[4-[3-(dimethylamino)prop-1-ynyl]-2-fluoro-phenoxy]propyl]thiazole-4-carboxylic acid] | 0.003 | – | – | 36.3 | 225
CCN(CC)CCNCCCCCN(c1cc(C)c(Nc2nc3ccccc3s2)nn1)c1nc(C(=O)O)c(CCCOc2ccc(C#CCN(C)C)cc2F)s1 [Example 182, 2-[[6-(1,3-Benzothiazol-2-ylamino)-5-methyl-pyridazin-3-yl]-[5-[2-(diethylamino)ethylamino]pentyl]amino]-5-[3-[4-[3-(dimethylamino)prop-1-ynyl]-2-fluoro-phenoxy]propyl]thiazole-4-carboxylic acid] | 0.0074 | – | – | 199 | 129
COC(COc1ccc(C#CCN(C)C)cc1F)Cc1sc(N(C)c2cc(C)c(Nc3nc4ccccc4s3)nn2)nc1C(=O)O (stereo not drawn) [Example 183, 2-({6-[(1,3-Benzothiazol-2-yl)amino]-5-methylpyridazin-3-yl}(methyl)amino)-5-(3-{4-[3-(dimethylamino)prop-1-yn-1-yl]-2-fluorophenoxy}-2-methoxypropyl)-1,3-thiazole-4-carboxylic acid] | 0.0078 | – | – | 187 | 46.5
Cc1cc(N(CCCCN2CCNCC2)c2nc(C(=O)O)c(CCCOc3ccc(C#CCN(C)C)cc3F)s2)nnc1Nc1nc2ccccc2s1 [Example 184, 2-[[6-(1,3-Benzothiazol-2-ylamino)-5-methyl-pyridazin-3-yl]-(4-piperazin-1-ylbutyl)amino]-5-[3-[4-[3-(dimethylamino)prop-1-ynyl]-2-fluoro-phenoxy]propyl]thiazole-4-carboxylic acid] | 0.0036 | – | – | 107 | 184
CNC/C=C/c1ccc(OCCCc2sc(N(CCCCO)c3cc(C)c(Nc4nc5ccccc5s4)nn3)nc2C(=O)O)c(F)c1 [Example 185, 2-[[6-(1,3-Benzothiazol-2-ylamino)-5-methyl-pyridazin-3-yl]-(4-hydroxybutyl)amino]-5-[3-[2-fluoro-4-[(E)-3-(methylamino)prop-1-enyl]phenoxy]propyl]thiazole-4-carboxylic acid] | 0.0012 | – | – | 7 | 16.8
CNCCCc1ccc(OCCCc2sc(N(CCCCO)c3cc(C)c(Nc4nc5ccccc5s4)nn3)nc2C(=O)O)c(F)c1 [Example 186, 2-[[6-(1,3-Benzothiazol-2-ylamino)-5-methyl-pyridazin-3-yl]-(4-hydroxybutyl)amino]-5-[3-[2-fluoro-4-[3-(methylamino)propyl]phenoxy]propyl]thiazole-4-carboxylic acid] | 0.001 | – | – | 16.9 | 85.3
